Results on 6 compounds are retold here after ChEMBL document CHEMBL1155160, “Novel complex class 1 integron bearing an ISCR1 element in an Escherichia coli isolate carrying the blaCTX-M-14 gene” (2007).

The assay relates to Escherichia coli. Briefly: Antimicrobial activity against Escherichia coli AJE0508 isolate carrying ISCR1 element related blaCTX-M-14 gene by agar dilution method. It is filed as functional.

Converted amounts (≈) assume the structure as drawn.

In the case of `CC1(C)S[C@@H]2[C@H](NC(=O)[C@H](N)c3ccccc3)C(=O)N2[C@H]1C(=O)O` [AMPICILLIN], the minimal inhibitory concentration (MIC) is more than 256 µg/mL.
In the case of `C[C@H]1[C@H](NC(=O)/C(=N\OC(C)(C)C(=O)O)c2csc(N)n2)C(=O)N1S(=O)(=O)O` [AZTREONAM] it was 64 µg/mL (≈ 147 µM); in that of `CO/N=C(\C(=O)N[C@@H]1C(=O)N2C(C(=O)O)=C(COC(C)=O)CS[C@H]12)c1csc(N)n1` [CEFOTAXIME], 64 µg/mL (≈ 141 µM).
In the case of `CO[C@@]1(NC(=O)Cc2cccs2)C(=O)N2C(C(=O)O)=C(COC(N)=O)CS[C@@H]21` [CEFOXITIN], the lowest concentration to inhibit growth (MIC) was 8 µg/mL (≈ 18.7 µM).
In the case of `CC(C)(O/N=C(\C(=O)N[C@@H]1C(=O)N2C(C(=O)[O-])=C(C[n+]3ccccc3)CS[C@H]12)c1csc(N)n1)C(=O)O` [CEFTAZIDIME] it was 32 µg/mL (≈ 58.5 µM); in that of `C[C@@H](O)[C@H]1C(=O)N2C(C(=O)O)=C(SCCNC=N)C[C@H]12` [IMIPENEM ANHYDROUS], 0.1 µg/mL (≈ 0.334 µM).
